Experimental data from a compilation of properties of binary mixtures (doi:10.5541/ijot.303607).

Test: xn = mol fraction of the nth substance listed
Settings: 101 kPa

CC(O)C(=O)[O-].[NH3+]CCO (stereo not given) + CO
speed of sound [m/s]
Settings	x2 = 0.0675	x2 = 0.1469	x2 = 0.2586	x2 = 0.3811	x2 = 0.4275	x2 = 0.518	x2 = 0.6083	x2 = 0.7069	x2 = 0.7972	x2 = 0.8985
288.15 K	1875.8	–	1802.2	1745.7	1721.2	1666.4	1603.6	1522	–	1301.9
290.65 K	1867.4	1839.5	1795.1	–	1715	1660	1597.9	1515.5	1422	1294.8
293.15 K	–	1831.9	1788.4	–	–	1653.7	1592	1509	1415.5	1287.8
295.65 K	1852.2	1824.6	–	1727.1	–	–	1586.1	–	1409	–
298.15 K	1845.1	1817.8	1775.2	–	1697	1641.3	1580.2	–	1402.4	–
300.65 K	1838.4	1811.2	1768.8	1715.2	1690.9	–	1574.2	1489.5	1395.8	1266.1
303.15 K	1831.9	1804.9	1762.6	1709.4	1685	–	–	1483	1389.3	1258.9
305.65 K	1825.7	1798.8	1756.6	1703.5	1679	1623.2	1562.1	1476.6	1382.8	1251.8
308.15 K	1819.6	1792.9	1750.5	1697.6	1673	1617.2	1556	–	1376.2	1244.6
310.65 K	1813.6	1787	1744.5	1691.7	1667.1	1611.2	1549.9	1463.8	1369.7	1237.5
313.15 K	1807.7	1781.1	–	1685.9	1661.1	1605.2	–	1457.3	–	–
315.65 K	1801.9	1775.2	1732.6	1680	–	1599.1	1537.6	1451	1356.6	1223.2
318.15 K	1796.2	–	1726.7	1674.2	1649.2	1593.1	1531.4	1444.5	–	1216.1
320.65 K	1790.5	1763.7	1720.8	1668.4	1643.4	1587.1	1525.2	1438.2	1343.6	1209
323.15 K	–	1758	1715	1662.7	–	1581.1	1519	1431.9	1337.2	1201.9

CC(O)C(=O)[O-].[NH3+]CCO (stereo not given) + O
speed of sound [m/s]
Settings	x1 = 0.0088	x1 = 0.0135	x2 = 0.3197	x2 = 0.5253	x2 = 0.6892	x2 = 0.9027	x2 = 0.9293	x2 = 0.949	x2 = 0.9707
288.15 K	1513.4	–	–	1897.5	–	1778.8	1727.7	1676.5	1602.1
290.65 K	1520.5	1541.4	–	1891.7	1887.8	–	1728.5	1678.8	1606.7
293.15 K	1527.1	1547.4	1882.8	1886	1882.8	1776.9	1729	1680.8	–
295.65 K	1533.2	1553	1876.5	1880.3	1877.8	–	1729.3	1682.6	1614.6
298.15 K	1539	1558.2	1870.4	–	1872.8	1774.5	1729.4	1684.1	1618.1
300.65 K	1544.3	–	1864.4	1869.1	–	–	1729.3	–	1621.3
303.15 K	1549.2	1567.4	1858.5	1863.5	1862.7	–	1729	–	1624.1
305.65 K	1553.7	–	1852.6	1858	1857.7	–	1728.6	1687.2	1626.6
308.15 K	1557.8	1575.2	–	1852.5	1852.6	1767.7	1727.9	1687.7	1628.8
310.65 K	1561.5	–	1841.1	–	1847.5	–	1727	1688	1630.8
313.15 K	1565	–	1835.4	–	1842.3	1763.4	1726	1688.1	1632.4
315.65 K	1568	1584.1	1829.7	1835.9	–	1761.1	1724.7	1687.9	–
318.15 K	1570.7	1586.5	1824	–	1831.9	1758.6	–	1687.5	–
320.65 K	–	1588.5	1818.3	1824.8	1826.7	1756	–	–	1635.6
323.15 K	1575.1	1590.1	1812.7	–	–	1753.2	1719.9	1686.1	–

CC(O)C(=O)[O-].[NH3+]CCO (stereo not given) + CCO
speed of sound [m/s]
Settings	x2 = 0.0543	x2 = 0.1051	x2 = 0.206	x2 = 0.3151	x2 = 0.4144	x2 = 0.5122	x2 = 0.6116	x2 = 0.7232	x2 = 0.8109	x2 = 0.9528
288.15 K	–	1848	1792.9	1727.2	–	1590.8	1514	–	1349.2	–
290.65 K	1863.7	1839.9	–	1720.3	1654.4	1586.3	1507.4	1416	1342	1219.2
293.15 K	1855.8	1832.1	1779	1713.6	–	–	1500.8	1409.1	1334.8	1211.3
295.65 K	1848.3	1824.7	1772.2	1707	1640.9	1573.7	1494	1402.2	1327.5	1203.3
298.15 K	–	–	1765.7	1700.7	1634.4	–	1487.3	1395.3	1320.3	1195.4
300.65 K	–	–	1765.7	1700.7	1634.4	1567.3	1487.3	1395.3	–	–
303.15 K	1828	1804.4	–	–	1621.5	1555	1474.1	–	1305.9	1179.5
305.65 K	1821.7	1798.1	1747.1	1682.1	–	–	1467.5	1374.7	1298.8	1171.5
308.15 K	–	1791.9	1741.1	1676	1608.8	1542.7	1461	1367.9	1291.6	1163.6
310.65 K	1809.5	1785.8	1735.2	1670	1602.6	1536.5	1454.5	–	1284.4	–
313.15 K	–	1779.7	1729.3	1664	1596.3	1530.3	1448	1354.3	1277.3	1147.8
315.65 K	–	1773.7	1723.4	1658	1590.1	1524.2	1441.5	1347.5	1270.2	–
318.15 K	–	1767.8	1717.5	–	1583.9	1518.1	1435	1340.8	1263.1	1132.2
320.65 K	1786.1	1762	1711.8	1646	–	1511.9	1428.6	–	1256.1	1124.5
323.15 K	1780.3	1756.1	1706	1640.2	1571.5	1505.7	1422.2	1327.3	1249	–
